For one data set, the target named is T1, M1 muscarinic receptor (Homo sapiens, UniProt P11229).
T1 construct: Eurofins Cerep (contract assay)
T1 sequence (P11229 1-460): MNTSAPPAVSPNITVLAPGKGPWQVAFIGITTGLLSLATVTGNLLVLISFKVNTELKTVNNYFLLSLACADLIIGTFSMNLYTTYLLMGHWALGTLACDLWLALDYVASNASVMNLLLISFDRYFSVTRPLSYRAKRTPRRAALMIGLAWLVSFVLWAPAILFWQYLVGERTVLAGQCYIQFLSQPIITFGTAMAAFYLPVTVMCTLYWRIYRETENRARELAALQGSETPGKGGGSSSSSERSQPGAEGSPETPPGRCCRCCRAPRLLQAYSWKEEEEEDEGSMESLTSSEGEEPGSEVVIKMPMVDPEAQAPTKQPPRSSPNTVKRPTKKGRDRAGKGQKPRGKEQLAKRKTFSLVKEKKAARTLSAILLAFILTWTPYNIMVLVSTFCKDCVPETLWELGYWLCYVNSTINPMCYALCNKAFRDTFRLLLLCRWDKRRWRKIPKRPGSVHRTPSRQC
Nature of the data set: Eurofins Cerep off-target binding, % inhibition at 1 μM. The procedure: (§1) Additionally, the affinity of compound 27 at the adrenergic α1A, muscarinic M1, histaminergic H1, dopaminergic D3, serotoninergic 5-HT2C, 5-HT3 receptors, serotonin transporter (SERT), and the human ether-a-go-go-related gene (hERG) channel were evaluated in Eurofins Cerep.

For another data set, the target named is T2, serotonin 5-HT3 receptor (Homo sapiens, UniProt P46098).
T2 construct: Eurofins Cerep (contract assay)
T2 sequence (P46098 24-478): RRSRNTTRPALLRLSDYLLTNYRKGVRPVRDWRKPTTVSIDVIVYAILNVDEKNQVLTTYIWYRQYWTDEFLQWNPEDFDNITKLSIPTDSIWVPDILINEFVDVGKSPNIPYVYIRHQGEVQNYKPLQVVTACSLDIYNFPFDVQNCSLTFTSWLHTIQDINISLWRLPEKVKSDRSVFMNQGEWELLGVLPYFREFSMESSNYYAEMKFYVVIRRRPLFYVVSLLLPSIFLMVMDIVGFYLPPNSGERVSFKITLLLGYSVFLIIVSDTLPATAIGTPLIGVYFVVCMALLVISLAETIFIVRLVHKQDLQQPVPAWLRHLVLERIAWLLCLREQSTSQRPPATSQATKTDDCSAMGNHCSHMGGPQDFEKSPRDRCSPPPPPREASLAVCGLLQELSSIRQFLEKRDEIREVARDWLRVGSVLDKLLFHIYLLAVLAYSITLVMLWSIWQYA
Described as above. The procedure:
as §1

In data set [1] the target is T3, serotonin transporter (SERT) (Homo sapiens, UniProt P31645).
T3 construct: Eurofins Cerep (contract assay)
T3 sequence (P31645 whole entry, species assumed): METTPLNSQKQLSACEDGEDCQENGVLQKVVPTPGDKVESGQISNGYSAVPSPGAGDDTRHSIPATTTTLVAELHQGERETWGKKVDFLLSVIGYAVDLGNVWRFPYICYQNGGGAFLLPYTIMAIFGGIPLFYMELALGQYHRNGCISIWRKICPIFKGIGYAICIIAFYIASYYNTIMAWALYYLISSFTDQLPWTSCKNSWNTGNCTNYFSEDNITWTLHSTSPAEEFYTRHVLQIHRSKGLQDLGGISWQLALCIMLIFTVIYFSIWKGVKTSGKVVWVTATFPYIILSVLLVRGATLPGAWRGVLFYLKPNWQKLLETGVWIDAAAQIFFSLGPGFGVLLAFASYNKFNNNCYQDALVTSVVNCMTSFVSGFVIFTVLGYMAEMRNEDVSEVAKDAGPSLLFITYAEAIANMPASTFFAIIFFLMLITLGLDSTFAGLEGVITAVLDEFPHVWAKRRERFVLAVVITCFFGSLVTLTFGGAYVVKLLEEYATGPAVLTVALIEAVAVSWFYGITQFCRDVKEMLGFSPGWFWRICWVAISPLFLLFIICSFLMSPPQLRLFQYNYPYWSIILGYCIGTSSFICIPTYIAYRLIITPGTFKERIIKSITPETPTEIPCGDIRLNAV
The description is as above. The procedure: as §1

For a further data set, the target named is T4, hERG channel (Homo sapiens, UniProt Q12809).
T4 construct: Eurofins Cerep (contract assay)
T4 sequence (Q12809 whole entry): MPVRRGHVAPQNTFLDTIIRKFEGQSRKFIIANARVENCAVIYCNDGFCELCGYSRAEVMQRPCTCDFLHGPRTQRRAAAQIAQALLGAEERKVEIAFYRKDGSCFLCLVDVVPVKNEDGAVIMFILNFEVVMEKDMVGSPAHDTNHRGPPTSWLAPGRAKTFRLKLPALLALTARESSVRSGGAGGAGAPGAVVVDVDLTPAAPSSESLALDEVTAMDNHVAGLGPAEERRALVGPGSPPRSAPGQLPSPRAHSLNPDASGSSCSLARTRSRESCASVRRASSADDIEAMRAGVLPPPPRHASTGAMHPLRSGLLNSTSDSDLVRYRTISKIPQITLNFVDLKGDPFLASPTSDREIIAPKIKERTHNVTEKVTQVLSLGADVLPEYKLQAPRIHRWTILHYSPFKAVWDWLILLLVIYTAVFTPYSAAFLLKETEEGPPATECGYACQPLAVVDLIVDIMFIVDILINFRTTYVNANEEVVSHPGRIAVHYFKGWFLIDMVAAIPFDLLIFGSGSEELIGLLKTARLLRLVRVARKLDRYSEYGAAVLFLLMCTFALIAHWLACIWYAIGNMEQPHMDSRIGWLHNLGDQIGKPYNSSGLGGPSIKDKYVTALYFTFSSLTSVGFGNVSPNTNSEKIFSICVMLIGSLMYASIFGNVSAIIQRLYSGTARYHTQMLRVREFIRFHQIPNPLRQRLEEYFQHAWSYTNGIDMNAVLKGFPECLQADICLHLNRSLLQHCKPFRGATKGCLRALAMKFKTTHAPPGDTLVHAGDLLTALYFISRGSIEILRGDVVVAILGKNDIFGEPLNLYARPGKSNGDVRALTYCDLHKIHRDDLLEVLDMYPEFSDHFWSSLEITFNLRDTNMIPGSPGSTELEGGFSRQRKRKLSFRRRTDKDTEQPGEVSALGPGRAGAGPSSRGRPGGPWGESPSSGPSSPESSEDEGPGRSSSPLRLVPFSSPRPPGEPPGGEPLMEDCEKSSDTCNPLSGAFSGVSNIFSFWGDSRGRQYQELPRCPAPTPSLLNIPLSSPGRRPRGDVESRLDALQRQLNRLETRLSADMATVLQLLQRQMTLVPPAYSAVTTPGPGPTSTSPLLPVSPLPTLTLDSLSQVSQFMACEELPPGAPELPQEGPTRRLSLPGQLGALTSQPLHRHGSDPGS
The data set is described as above. The procedure:
as §1

The subject of data set [2] is Salmonella typhimurium TA100. Particulars: without S9 fraction. The procedure:
Ames microplate fluctuation protocol (MPF) assay was performed with Salmonella typhimurium strain TA100, enabling the detection base substitution mutations. Bacterial strain and exposure and indicator medium were purchased from Xenometrix AG (Allschwil, Switzerland). The mutagenic potential of tested structures was evaluated by incubation of bacteria, incapable of producing histidine, with particular concentration of test compounds for 90 min in exposure medium, containing limited amount of histidine. The occurrence of reversion events to histidine prototrophy was observed as a growth of bacteria in the indicator medium without histidine after 48 h of incubation in room temperature. Bacterial growth in 384-well plates was visualized by color change of medium from violet to yellow due to addition of pH indicator dye. Compound was classified as mutagenic, if the fold increase in number of positive wells over the medium control baseline was greater than 2.0. The solvent control baseline was defined as the mean number of positive wells in the negative control sample, increased by one standard deviation. 1% DMSO in media was used as a negative and 4-nitroquinoline N-oxide (NQNO) as positive control. The experiment was performed in triplicate. Fraction S9 was not added.

The next data set concerns the target T5, CYP3A4 (Homo sapiens, UniProt P08684).
T5 construct: purchased Promega (Madison, WI, USA)
Nature of the data set: CYP3A4 P450-Glo luminescent inhibition assay. Particulars: 0.01–25 μM. It counts as in vitro ADME. An excerpt: The luminescent CYP3A4 P450-Glo and CYP2D6 P450-Glo assays and protocols were provided by Promega (Madison, WI, USA). The P450-Glo systems based on the conversion proluciferins, derivatives of beetle luciferin [(4S)-4,5-dihydro-2-(6′-hydroxy-2′-benzothiazolyl)-4-thiazolecarboxylic acid] into D-luciferin were catalyzed by respective CYP isoform. D-Luciferin is formed and detected in a second reaction with the luciferin detection reagent (LDR). The amount of light produced in the second reaction is proportional to CYP activity.
The stock solutions (10 mM) of the references ketoconazole (KE), quinidine (QD), and examined compounds were performed in DMSO. The 4× concentrated dilutions were prepared before the assays. […]
The CYPs, proluciferin, and examined compounds (25 μL/well) were preincubated first for 5 min, and next the NADPH regeneration system was added (25 μL) to start the reaction. […] The control reactions for measuring the 100% of CYPs activity and minus-CYP negative control reactions for measure background luminescence were also prepared. […] Finally, LDR was added (50 μL/well), and after 20 min of incubation in room temperature the luminescence signal was measured with a microplate reader (EnSpire, PerkinElmer) in luminescence mode. […] The IC50 values and were calculated using GraphPad Prism 5 software.

What is called inhibition is the change of the read-out against control, counted positive when it falls. A high value points to a strong effect. What is called IC50 is the midpoint of a concentration-inhibition curve.

T5 sequence (P08684 whole entry): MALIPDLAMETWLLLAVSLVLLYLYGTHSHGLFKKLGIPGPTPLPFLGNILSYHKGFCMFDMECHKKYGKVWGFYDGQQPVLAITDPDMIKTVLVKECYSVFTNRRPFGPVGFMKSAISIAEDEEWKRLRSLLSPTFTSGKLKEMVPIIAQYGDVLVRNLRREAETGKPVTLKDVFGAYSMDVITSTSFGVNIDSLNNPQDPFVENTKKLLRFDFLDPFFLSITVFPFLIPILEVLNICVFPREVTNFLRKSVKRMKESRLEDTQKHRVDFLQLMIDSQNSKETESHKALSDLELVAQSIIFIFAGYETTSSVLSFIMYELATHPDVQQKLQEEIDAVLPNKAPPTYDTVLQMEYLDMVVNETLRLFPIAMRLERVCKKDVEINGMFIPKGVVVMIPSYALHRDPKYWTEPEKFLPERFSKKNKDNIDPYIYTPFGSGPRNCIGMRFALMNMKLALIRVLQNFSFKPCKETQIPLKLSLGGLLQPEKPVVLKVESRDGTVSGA

Take `O=C(N[C@@H]1CCNC1)c1ccn(S(=O)(=O)c2cccc(Cl)c2)c1-c1ccc(F)cc1` [Compound 27, (R)-2-(4-Fluorophenyl)-1-[(3-chlorophenyl)sulfonyl]-N-(pyrrolidin-3-yl)-1H-pyrrole-3-carboxamide]: the inhibition at 1 µM at M1 muscarinic receptor was 0%; on serotonin 5-HT3 receptor it was 2%; in data set [1], 10%; at hERG channel, 1%. The “mutagenicity (Ames test)” value in data set [2] is recorded as “non-mutagenic”. The same compound came in with an IC50 on CYP3A4 of 69 nM.

Values taken from paper PMC8041276 (ACS Chemical Neuroscience, 2021).
